# Active and inactive are the calls of the source. The calls are words filed in the database; no cut-off is given here.
# Legend:
# [1] = Selectivity index, ratio of IC50 for cytotoxicity against human MRC5 cells assessed as inhibition of cell proliferation to IC50 for antiproliferative activity against human NCI-H1975 cells assessed as inhibition of cell proliferation; format: toxicity, cell-based; details: MRC5 cells and NCI-H1975 cells, read-out: Ratio IC50
# NCI-H1975 [2] = test: Antiproliferative activity against human NCI-H1975 cells assessed as inhibition of cell proliferation incubated for 72 hrs by MTT assay; format: functional, cell-based; details: for IC50: NCI-H1975, 72 h
# [3] = Cytotoxicity against human MRC5 cells assessed as inhibition of cell proliferation incubated for 72 hrs by MTT assay; format: toxicity, cell-based
# A549 = test: Antiproliferative activity against human A549 cells assessed as inhibition of cell proliferation incubated for 72 hrs by MTT assay; format: functional, cell-based; details: for IC50: A549, 72 h
# PC-9 = test: Antiproliferative activity against human PC-9 cells assessed as inhibition of cell proliferation incubated for 72 hrs by MTT assay; format: functional, cell-based; details: for IC50: PC-9, 72 h
# NCI-H1975 [4] = test: Effect on N-cadherin expression level in human NCI-H1975 cells incubated for 48 hrs by Western blot analysis; format: functional, cell-based; details: dose <= 7.0 µM
# [5] = molecular target: Inactive tyrosine-protein kinase transmembrane receptor ROR1 (Homo sapiens) (UniProt Q01973); test: Binding affinity to ROR1 in human NCI-H1975 cells assessed as protection of pronase-mediated protein degradation preincubated with compound for 1 hr followed by pronase E addition and measured after 10 mins by DARTS assay; format: cell-based; details: dose <= 100.0 µM, time 70.0 min
# NCI-H1975 [6] = test: Inhibition of SRC phosphorylation in human NCI-H1975 cells upto 7 uM incubated for 48 hrs by Western blot analysis; format: cell-based
# [7] = Cmax in male Sprague-Dawley rat at 10 mg/kg, po measured upto 24 hrs by LC-MS/MS analysis; format: ADME, organism-based; details: in vivo
# NCI-H1975 [8] = test: Anti-invasive activity against human NCI-H1975 cells assessed as reduction in number of invaded cells at 7 uM incubated for 24 hrs by crystal violet staining based light microscopic analysis; format: functional, cell-based
# NCI-H1975 [9] = test: Inhibition of cell migration in human NCI-H1975 cells assessed as inhibition of wound closure at 1.75 to 7 uM measured at 24 to 48 hrs by wound healing assay; format: functional, cell-based; details: dose 1.75-7 µM, time 24-48 hrs
# NCI-H1975 [10] = test: Induction of cell cycle arrest in human NCI-H1975 cells assessed as reduction in CDK2 expression incubated for 24 hrs by Western blot analysis; format: functional, cell-based; details: dose 1.75-7 µM
# NCI-H1975 [11] = test: Induction of cell cycle arrest in human NCI-H1975 cells assessed as reduction in c-Myc expression incubated for 24 hrs by Western blot analysis; format: functional, cell-based; details: dose 1.75-7 µM
# [12] = molecular target: MAP kinase p38 (Homo sapiens) (UniProt O15264+Q15759+Q16539+P53778); test: Inhibition of p38 phosphorylation in human NCI-H1975 cells upto 7 uM incubated for 48 hrs by Western blot analysis; format: cell-based
# [13] = MRT (0 to infinity) in male Sprague-Dawley rat at 10 mg/kg, po measured upto 24 hrs by LC-MS/MS analysis; format: ADME, organism-based; details: in vivo
# NCI-H1975 [14] = test: Effect on MMP2 expression level in human NCI-H1975 cells incubated for 48 hrs by Western blot analysis; format: functional, cell-based; details: dose <= 7.0 µM
# NCI-H1975 [15] = test: Inhibition of cell migration in human NCI-H1975 cells assessed as inhibition of wound closure measured at 24 to 48 hrs by wound healing assay; format: functional, cell-based; details: dose 1.75-7 µM, time 24-48 hrs
# [16] = Half life in male Sprague-Dawley rat at 10 mg/kg, po measured upto 24 hrs by LC-MS/MS analysis; format: ADME, organism-based; details: in vivo
# NCI-H1975 [17] = test: Inhibition of cell migration in human NCI-H1975 cells assessed as inhibition of wound closure at 1.75 to 7 uM by wound healing assay; format: functional, cell-based; details: dose 1.75-7 µM, time 24-48 hrs
# [18] = AUC (0 to infinity) in male Sprague-Dawley rat at 10 mg/kg, po measured upto 24 hrs by LC-MS/MS analysis; format: ADME, organism-based; details: in vivo
# NCI-H1975 [19] = test: Effect on E-cadherin expression level in human NCI-H1975 cells incubated for 48 hrs by Western blot analysis; format: functional, cell-based; details: dose <= 7.0 µM
# NCI-H1975 [20] = test: Antiproliferative activity against human NCI-H1975 cells assessed as suppression of cell growth incubated for 72 hrs by MTT assay; format: functional, cell-based; details: dose 7.0 µM
# [21] = molecular target: Inactive tyrosine-protein kinase transmembrane receptor ROR1 (Homo sapiens) (UniProt Q01973); test: Inhibition of ROR1 phosphorylation in human NCI-H1975 cells upto 7 uM incubated for 48 hrs by Western blot analysis; format: cell-based
# [22] = Tmax in male Sprague-Dawley rat at 10 mg/kg, po measured upto 24 hrs by LC-MS/MS analysis; format: ADME, organism-based; details: in vivo
# NCI-H1975 [23] = test: Effect on Vimentin expression level in human NCI-H1975 cells incubated for 48 hrs by Western blot analysis; format: functional, cell-based; details: dose <= 7.0 µM
# NCI-H1975 [24] = test: Effect on ZEB1 expression level in human NCI-H1975 cells incubated for 48 hrs by Western blot analysis; format: functional, cell-based; details: dose <= 7.0 µM
# NCI-H1975 [25] = test: Inhibition of colony formation in human NCI-H1975 cells assessed as decrease in number of colonies incubated for 72 hrs by crystal violet staining based assay; format: functional, cell-based; details: dose 1.75-7 µM
# NCI-H1975 [26] = test: Induction of cell cycle arrest in human NCI-H1975 cells assessed as decrease in accumulation of cells at G2/M phase incubated for 24 hrs by PI staining based flow cytometry analysis; format: functional; details: dose 1.75-7 µM
# [27] = molecular target: Inactive tyrosine-protein kinase transmembrane receptor ROR1 (Homo sapiens) (UniProt Q01973); test: Binding affinity to ROR1 in human NCI-H1975 cells assessed as increase in thermal stability at 10 uM at 57 to 62 degreeC incubated for 4 hrs by CETSA analysis; format: cell-based
# NCI-H1975 [28] = test: Induction of cell cycle arrest in human NCI-H1975 cells assessed as reduction in cyclin-D1 expression incubated for 24 hrs by Western blot analysis; format: functional, cell-based; details: dose 1.75-7 µM
# NCI-H1975 [29] = test: Induction of cell cycle arrest in human NCI-H1975 cells assessed as accumulation of cells at G1 phase incubated for 24 hrs by PI staining based flow cytometry analysis; format: functional; details: dose 1.75-7 µM
# Sequence of Inactive tyrosine-protein kinase transmembrane receptor ROR1 (Homo sapiens) (Q01973 whole entry): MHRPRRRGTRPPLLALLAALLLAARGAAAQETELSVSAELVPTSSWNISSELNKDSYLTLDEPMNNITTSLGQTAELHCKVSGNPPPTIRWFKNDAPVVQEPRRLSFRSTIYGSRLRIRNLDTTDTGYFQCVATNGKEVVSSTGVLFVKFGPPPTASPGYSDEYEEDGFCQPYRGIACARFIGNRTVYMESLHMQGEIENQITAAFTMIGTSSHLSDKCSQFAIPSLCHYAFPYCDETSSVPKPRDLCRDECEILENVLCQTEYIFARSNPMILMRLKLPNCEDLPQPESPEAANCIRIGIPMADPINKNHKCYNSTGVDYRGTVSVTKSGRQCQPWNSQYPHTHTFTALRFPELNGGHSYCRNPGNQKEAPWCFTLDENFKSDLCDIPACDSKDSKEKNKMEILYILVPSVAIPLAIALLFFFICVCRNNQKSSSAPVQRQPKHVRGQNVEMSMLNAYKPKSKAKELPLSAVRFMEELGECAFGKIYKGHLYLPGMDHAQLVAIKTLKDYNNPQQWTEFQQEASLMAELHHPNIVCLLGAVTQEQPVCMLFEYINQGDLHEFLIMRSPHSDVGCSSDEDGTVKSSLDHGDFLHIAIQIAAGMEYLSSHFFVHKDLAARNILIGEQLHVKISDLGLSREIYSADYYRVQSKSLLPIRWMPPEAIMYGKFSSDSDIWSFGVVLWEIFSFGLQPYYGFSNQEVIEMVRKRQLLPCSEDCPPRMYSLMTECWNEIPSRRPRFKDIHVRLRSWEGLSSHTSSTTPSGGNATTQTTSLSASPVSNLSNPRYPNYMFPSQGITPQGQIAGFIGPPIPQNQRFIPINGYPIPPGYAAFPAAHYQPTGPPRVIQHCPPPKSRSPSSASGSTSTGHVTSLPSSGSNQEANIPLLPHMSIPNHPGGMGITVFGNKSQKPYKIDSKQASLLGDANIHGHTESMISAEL
smiles,measurement,setting,value
COCCNC(=O)c1cccc(-c2ccc3sc(NC(=O)C(C)(C)C)nc3c2)c1,selectivity ratio,[1],> 7.23
same,IC50,NCI-H1975 [2],11.1 µM
same,IC50 at 72 h,[3],> 80 µM
same,IC50,A549,> 40 µM
same,IC50,PC-9,> 40 µM
O=C(NCC1CC1)c1cccc(-c2ccc3sc(NC(=O)c4ccc(F)cc4)nc3c2)c1,IC50,NCI-H1975 [2],> 40 µM
same,IC50 at 72 h,[3],> 80 µM
same,IC50,A549,> 40 µM
same,IC50,PC-9,11.9 µM
CC(=O)Nc1nc2cc(-c3cccc(C(=O)NCCC(C)C)c3)ccc2s1,IC50,NCI-H1975 [2],> 40 µM
same,IC50 at 72 h,[3],> 80 µM
same,IC50,A549,> 40 µM
same,IC50,PC-9,24.7 µM
CC(C)(C)C(=O)Nc1nc2cc(-c3cccc(C(=O)NCC4CC4)c3)ccc2s1,IC50,NCI-H1975 [2],> 40 µM
same,IC50 at 72 h,[3],> 80 µM
same,IC50,A549,27.6 µM
same,IC50,PC-9,21.8 µM
CCC(=O)Nc1nc2cc(-c3cccc(C(=O)NCC4CC4)c3)ccc2s1,IC50,NCI-H1975 [2],> 40 µM
same,IC50 at 72 h,[3],> 80 µM
same,IC50,A549,> 40 µM
same,IC50,PC-9,> 40 µM
CC(C)CCNC(=O)c1cccc(-c2ccc3sc(NC(=O)c4ccc(F)cc4)nc3c2)c1,Activity,NCI-H1975 [4],Dose-dependent-effect
same,Activity,[5],Dose-dependent-effect
same,inhibition,NCI-H1975 [6],Active
same,selectivity ratio,[1],> 22.9
same,Cmax,[7],1120 ng/mL
same,Activity,NCI-H1975 [8],Active
same,inhibition,NCI-H1975 [9],Active
same,Activity,NCI-H1975 [10],Dose-dependent-effect
same,Activity,NCI-H1975 [11],Dose-dependent-effect
same,inhibition,[12],Active
same,MRT inf,[13],18.7 h
same,IC50,NCI-H1975 [2],3.5 µM
same,Activity,NCI-H1975 [2]; dose <= 40.0 µM,Dose-dependent-effect
same,Activity,NCI-H1975 [14],Dose-dependent-effect
same,IC50 at 72 h,[3],> 80 µM
same,inhibition,NCI-H1975 [15],Dose-dependent-effect
same,half-life,[16],10 h
same,inhibition,NCI-H1975 [17],Time-dependent-effect
same,AUC(0-inf),[18],12400 ng·h/mL
same,IC50,A549,18.2 µM
same,Activity,A549; dose <= 40.0 µM,Dose-dependent-effect
same,IC50,PC-9,8.11 µM
same,Activity,PC-9; dose <= 40.0 µM,Dose-dependent-effect
same,Activity,NCI-H1975 [19],Dose-dependent-effect
same,Activity,NCI-H1975 [20],Dose-dependent-effect
same,inhibition,[21],Active
same,Tmax,[22],2 h
same,Activity,NCI-H1975 [23],Dose-dependent-effect
same,Activity,NCI-H1975 [24],Dose-dependent-effect
same,inhibition,NCI-H1975 [25],Dose-dependent-effect
same,Activity,NCI-H1975 [26],Dose-dependent-effect
same,Activity,[27],Active
same,Activity,NCI-H1975 [28],Dose-dependent-effect
same,Activity,NCI-H1975 [29],Dose-dependent-effect
CNc1cccc(NC(=O)c2ccc(C)c(C#Cc3cnc4cccnn34)c2)c1,IC50,NCI-H1975 [2],66.7 µM
same,IC50,A549,27.5 µM
CCCC(=O)Nc1nc2cc(-c3cccc(C(=O)NCCOC)c3)ccc2s1,IC50,NCI-H1975 [2],> 40 µM
same,IC50 at 72 h,[3],> 80 µM
same,IC50,A549,> 40 µM
same,IC50,PC-9,> 40 µM
Cc1ccc(CNC(=O)c2cccc(-c3ccc4sc(NC(=O)C5CCCCC5)nc4c3)c2)cc1,IC50,NCI-H1975 [2],> 40 µM
same,IC50 at 72 h,[3],> 80 µM
same,IC50,A549,> 40 µM
same,IC50,PC-9,> 40 µM
CC(=O)Nc1nc2cc(-c3ccc4ncn(Cc5ccccc5)c(=O)c4c3)ccc2[nH]1,selectivity ratio,[1],1.83
same,IC50,NCI-H1975 [2],1.02 µM
same,IC50 at 72 h,[3],1.87 µM
same,IC50,A549,0.83 µM
same,IC50,PC-9,0.91 µM
CCC(=O)Nc1nc2cc(-c3cccc(C(=O)NCc4ccc(OC)cc4)c3)ccc2s1,IC50,NCI-H1975 [2],> 40 µM
same,IC50 at 72 h,[3],> 80 µM
same,IC50,A549,> 40 µM
same,IC50,PC-9,> 40 µM
COCCNC(=O)c1cccc(-c2ccc3sc(NC(C)=O)nc3c2)c1,IC50,NCI-H1975 [2],> 40 µM
same,IC50 at 72 h,[3],> 80 µM
same,IC50,A549,> 40 µM
same,IC50,PC-9,> 40 µM
COc1ccc(CNC(=O)c2cccc(-c3ccc4sc(NC(=O)C(C)(C)C)nc4c3)c2)cc1,selectivity ratio,[1],> 6.52
same,IC50,NCI-H1975 [2],12.3 µM
same,IC50 at 72 h,[3],> 80 µM
same,IC50,A549,> 40 µM
same,IC50,PC-9,> 40 µM
CCC(=O)Nc1nc2cc(-c3cccc(C(=O)NCCOC)c3)ccc2s1,IC50,NCI-H1975 [2],> 40 µM
same,IC50 at 72 h,[3],> 80 µM
same,IC50,A549,> 40 µM
same,IC50,PC-9,> 40 µM
CC(C)CCNC(=O)c1cccc(-c2ccc3sc(NC(=O)C(C)(C)C)nc3c2)c1,selectivity ratio,[1],> 18.2
same,IC50,NCI-H1975 [2],4.4 µM
same,IC50 at 72 h,[3],> 80 µM
same,IC50,A549,> 40 µM
same,IC50,PC-9,13.9 µM
CC(=O)Nc1nc2cc(-c3cccc(C(=O)NCC4CC4)c3)ccc2s1,IC50,NCI-H1975 [2],> 40 µM
same,IC50 at 72 h,[3],> 80 µM
same,IC50,A549,> 40 µM
same,IC50,PC-9,> 40 µM
CCCNC(=O)c1cccc(-c2ccc3sc(NC(=O)C(C)(C)C)nc3c2)c1,selectivity ratio,[1],> 9.8
same,IC50,NCI-H1975 [2],8.16 µM
same,IC50 at 72 h,[3],> 80 µM
same,IC50,A549,31.4 µM
same,IC50,PC-9,> 40 µM
Cc1ccc(CNC(=O)c2cccc(-c3ccc4sc(NC(=O)C(C)(C)C)nc4c3)c2)cc1,selectivity ratio,[1],> 6.43
same,IC50,NCI-H1975 [2],12.4 µM
same,IC50 at 72 h,[3],> 80 µM
same,IC50,A549,> 40 µM
same,IC50,PC-9,> 40 µM
CC(=O)Nc1nc2cc(-c3cccc(C(=O)NCc4ccc(F)cc4)c3)ccc2s1,selectivity ratio,[1],> 8.56
same,IC50,NCI-H1975 [2],9.35 µM
same,IC50 at 72 h,[3],> 80 µM
same,IC50,A549,> 40 µM
same,IC50,PC-9,> 40 µM
COCOc1cc(OCOC)c2c(c1)O[C@@H](c1ccc(OC)cc1)CC2=O,selectivity ratio,[1],> 13.2
same,IC50,NCI-H1975 [2],6.06 µM
same,IC50 at 72 h,[3],> 80 µM
same,IC50,A549,> 40 µM
same,IC50,PC-9,10.4 µM
COCCNC(=O)c1cccc(-c2ccc3sc(NC(=O)c4ccccc4)nc3c2)c1,selectivity ratio,[1],> 4.52
same,IC50,NCI-H1975 [2],17.7 µM
same,IC50 at 72 h,[3],> 80 µM
same,IC50,A549,> 40 µM
same,IC50,PC-9,> 40 µM

# Source: ChEMBL document CHEMBL6078662, “Discovery of 3-(2-aminobenzo[d]thiazol-5-yl) benzamide derivatives as potent anticancer agents via ROR1 inhibition” (Bioorg Med Chem, 2025)
